Measurements taken from patent US12594255B2, “Lipids with odd number of carbon atoms and their use as pharmaceutical composition or nutritional supplement” (SunRegen Healthcare AG, priority 2016, dated 2026).
Several values for one entry are separate records, joined by “and”; a condition that tells them apart may be missing. Identical values can stand only once.

Tests used:
[1] = test system: mouse primary cortical neurons challenged with Aβ1-42 oligomers (AβO); test: AβO-induced neurotoxicity, 48-h pre-incubation with test item, MTT assay; format: cell-based; conditions: 48 h pre-incubation, then 1 μM AβO 24 h
Experimental: Mouse primary cortical neurons were pre-incubated for 48 h with vehicle, 0.05 μM DHA (used as positive control) or different concentrations of Compound C. Then, cortical neurons were treated for 24 h with vehicle (FIG. 1 left) or 1 μM AβO ([…]) and cell viability was determined using the MTT assay (n=3 determinations per condition, 1 independent experiment), Data are represented as % of vehicle control (Mean*SD). […]
(§1) Cortical neurons from embryonic day 16-17 are prepared from C57BL6/J mouse fetuses. In brief, dissociated cortical cells were plated (50.000 cells/well) in 48-well plates pre-coated with 1.5 μg/mL polyornithine (Sigma). Cells were cultured in a chemically defined Dulbecco's modified eagle's/F12 medium free of serum and supplemented with hormones, proteins and salts. Cultures were kept at 35° C. in a humidified 6% CO2 atmosphere. Mouse cortical neurons were exposed for 24 h to 1.0 μM AβO after a 48-h pre-incubation with vehicle or different concentrations of Compound C. The AβO-induced neurotoxicity was evaluated using the MTT assay.
All treatments were done in triplicates in 48-well plates. Cells were incubated with vehicle or 1 μM AβO in the absence or presence of different lipids at the indicated final concentrations) added at 48 hours before ADO. Cells were incubated with AβO for 24 h in a final volume of 140 μL per well.
For positive controls, cells are treated similarly (48 hours before AβO) in the presence of 0.05 μM DHA.
Following AβO-treatment, cell viability was measured using the MTT assay. Briefly, cells were incubated at 35° C. for 1 h with MTT (Sigma, Cat #M2128-10G. Lot #MKBH7489V). For that purpose, 14 μL of 5 mg/mL MITT (solubilized in PBS) were added in each well. After incubation, medium was removed and cells were lyzed with 150 μL DMSO for 10 minutes and protected from light. After complete solubilization of formazan, absorbance at 570 nm was recorded.
as §1, with “cells are” for “cells were”, “Cells are” for “Cells were”, “Cultures are” for “Cultures were”, “of herb B extracts.” for “of Compound C.”, “assay. […]” for “assay.”

[2] = test system: mouse primary cortical neurons challenged with Aβ1-42 oligomers (AβO); test: AβO-induced neurotoxicity, test item added concomitantly (T0) or 3 h (T3) or 6 h (T6) after AβO, MTT assay; format: cell-based; conditions: for % of neuroprotection and anti-apoptotic effects / viability at 1 µM: 1000 nM
Experimental: Mouse primary cortical neurons were treated at 0 h (T0) with vehicle or 1 μM AβO, Different concentrations of Compound C or HNG (0.1 μM, used as positive control) were added concomitantly to AβO at 0 h (T0)), 3 h (T3) or 6 h (T6) after AβO. Then, cortical neurons were incubated for 24 h and cell viability was determined using the MTT assay (n=3 determinations per condition, 1 independent experiment). Data are represented as % of vehicle control (Mean±SD). […]
The aim of this study is to determine whether Compound C might present neuroprotective, anti-apoptotic and neuro-rescuing effects in in vitro AβO induced neuron death models. For that purpose, the neuro-protective effects of compound C at six concentrations were investigated using mouse primary cortical neurons challenged with Aβ1-42 oligomers (AβO) Compounds were added at different time points (concomitantly T0 with AβO and T3, or T6 after AβO) with the aim to identify rescuing effects or anti-apoptotic effects.
Cortical neurons from embryonic day 16-17 are prepared from C57Bl6/J mouse fetuses, as described in Example I-1.
Mouse cortical neurons were exposed for 24 h to 1.0 μM AβO. The AβO-induced neurotoxicity was evaluated using the MTT assay. […] (FIG. 4)
The percentage of neuroprotection and anti-apoptosis effects was defined as; (neuron viability of compound C group−neuron viability of toxin treated group)/(100−neuron viability of toxin treated group)×100%. The % of neuroprotection and anti-apoptotic effects of compound C at 1000 nM is 88.7%, 52.0%, 22.3%, at T0, T3, or T6, respectively. (FIG. 4) […]

[3] = test system: mouse primary cortical neurons challenged with camptothecin; test: Camptothecin-induced neuronal death, test item added 48 hours before camptothecin; format: cell-based; conditions: for neuroprotective and anti-apoptotic effects: 48 h before 1 μM camptothecin; for cell viability: 48 h before 1 μM camptothecin 24 h
Experimental: (§2) Mouse primary neurons were incubated with vehicle or toxins in the absence or presence of different concentrations of compound C added 48 hours before toxin's challenge. After the addition of toxins, cells were further incubated for 24 h.
as §2, with “Herb B” for “compound C”, “camptothecin's” for “toxin's”, “Camptothecin,” for “toxins,”, “h. Data are represented as % of vehicle control (Mean±SD).” for “h.”
The neuro-protective effects of different concentrations of compound C was investigated using mouse primary cortical neurons challenged with camptothecin, which is a cytotoxic quinoline alkaloid which inhibits the DNA enzyme topoisomerase I (topo I).
(§3) Mouse primary neurons were incubated with vehicle or toxins in the absence or presence of different concentrations of compound C added 48 hours before toxin's challenge. After the addition of 1 μM camptothecin, cells were further incubated for 24 h in a final volume of 140 μL per well.
as §3, with “Cells” for “Mouse primary neurons”, “toxins (at the indicated final concentrations described in plate-layout below)” for “toxins”

[4] = Solubility of compound C in stock solutions; format: physicochemical
[5] = test system: patients suffered from incurable diseases; test: Case reports of patients eating functional food containing SBC003; format: in vivo, human
From the text: Compound C (tripentadecanoin) is a natural lipid which can be found in specific herbs, but can also be found in human/animal milk. The patients described in examples II suffered from incurable diseases without any efficient treatment have voluntarily requested the functional food which containing SBC003.

`CCCCCCCCCCCCCCC(=O)OCC(COC(=O)CCCCCCCCCCCCCC)OC(=O)CCCCCCCCCCCCCC` [Compound C, tripentadecanoin] showed a maximal neuroprotective effect ([1]; Compound C 320 nM) of 100%, an EC50 ([1]; Mus musculus, Primary cortical neuron, expected around, read-out: EC50 effect (neuroprotection)) of about 66 nM and a viability at 0.32 µM ([1]; Mus musculus, Primary cortical neuron, Compound C 320 nM, read-out: cell viability) of 112 ± 1.5%. The “% of neuroprotection and anti-apoptotic effects” value ([2]; T0) was 88.7%, the “% of neuroprotection and anti-apoptotic effects” value ([2]; T3) was 52.0% and the “% of neuroprotection and anti-apoptotic effects” value ([2]; T6) was 22.3%. The viability at 0.32 µM ([2]; Mus musculus, Primary cortical neuron, 320 nM, added 3 h after AβO (T3)) was 65.3 ± 2.6%, the viability at 1 µM ([2]; Mus musculus, Primary cortical neuron, added 3 h after AβO (T3)) was 76.6 ± 2.9% and the viability at 1 µM ([2]; Mus musculus, Primary cortical neuron, added 6 h after AβO (T6)) was 62.4 ± 3.5%. For the same molecule, the viability at 1 µM ([2]; Mus musculus, Primary cortical neuron, added concomitantly to AβO (T0)) was 94.5 ± 4.6%, the “neuroprotective and anti-apoptotic effects” value ([3]; 10 nM) was 37.3% and the cell viability ([3]; 10 nM) was 73.5±1.5 % of control. The “neuroprotective and anti-apoptotic effects” value ([3]; 100 nM) was 37.2%, the cell viability ([3]; 100 nM) was 73.4±5.9 % of control and the “solubility in stock solutions” value [4] was “not fully soluble”. For the same molecule, the “serum creatinine, average level” value ([5]; female, chronic kidney failure, on treatment, before mean 9.21 mg/dl) was 8.88 mg/dL, the serum creatinine ([5]; female, chronic kidney failure, single values on treatment, before mean 9.21 mg/dl, listed as SBC003) was 8.88 mg/dL and 8.97 mg/dL and 8.55 mg/dL and 9.12 mg/dL and the “time breathing by themself” value ([5]; person, ALS, ventilator, functional food containing SBC003 about 10 mg/day, about one month, before at the most 30 mins/day) was “about 55 mins/day”. For the same molecule, the “Parkinson's symptoms” value ([5]; person, Parkinson's disease, functional food containing SBC003 about 10 mg/day, after about one week) was “abnormal shaking in feet improved”, the symptoms of asthma ([5]; person, asthma about 20 years, about 5 mg/time for about few times) was “greatly improved” and the asthma symptoms ([5]; person, asthma about 29 years, functional food containing SBC003 about 5 mg for one or two time) was “symptoms greatly improved”. The “facial expression / communication” value ([5]; person, cerebellar atrophy, functional food containing SBC003 about 10 mg/day, after about one month) was “started to smile”, the “urine volume once per day” value ([5]; person, chronic kidney failure, haemodialysis, no urine before, about 10 to 25 mg/day for about 1 month, after about 2 months) was 10 mL and the “urine total volume per day” value ([5]; person, chronic kidney failure, after increasing to 50-100 mg/day for about 2-3 months) was “about 50 ml per day”. The blood glucose level ([5]; person, chronic kidney failure, on treatment, prior to the treatment 130-180 mg/dl) was 70 to 105 mg/dL, the “vision (patient-reported)” value ([5]; person, optic atrophy, blind, functional food containing SBC003 about 7 mg/day for 7 days, after about one month) was “brighter and better vision” and the sitting time ([5]; person, spinal fractures, about 20 mg/day, about 10 days, before only 1 hour/time) was “up to 2 hours”. The remaining lumbar pains ([5]; person, spinal fractures, functional food containing SBC003 about 20 mg/day, about 10 days) was 40 % of the pains before taking SBC003.
